Measured values from PubChem BioAssay (NCI).
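Each compound was tested at five concentrations against cells in 96-well plates for 48 hours. GI50 = concentration required for 50% inhibition of growth. The concentration for full growth arrest is given as TGI.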

What was measured:
Assay in all cases: growth of human tumour cells (NCI), 48 h
[1] = test system: OVCAR-4 ovarian
[2] = test system: DU-145 prostate
[3] = test system: 786-0 renal
[4] = test system: SN12C renal
[5] = test system: HCT-116 colon
[6] = test system: BT-549 breast
[7] = test system: MCF7 breast
[8] = test system: MDA-MB-435
[9] = test system: UO-31 renal
[10] = test system: CCRF-CEM leukemia
[11] = test system: OVCAR-5 ovarian
[12] = test system: SK-OV-3 ovarian
[13] = test system: UACC-62 melanoma
[14] = test system: PC-3 prostate
[15] = test system: ACHN renal
[16] = test system: UACC-257 melanoma
[17] = test system: SK-MEL-5 melanoma
[18] = test system: MALME-3M melanoma
[19] = test system: SNB-75 CNS
[20] = test system: SR leukemia
[21] = test system: HS 578T breast
[22] = test system: SK-MEL-2 melanoma
[23] = test system: HCC-2998 colon
[24] = test system: TK-10 renal
[25] = test system: T-47D breast
[26] = test system: SW-620 colon
[27] = test system: M14 melanoma
[28] = test system: COLO 205 colon
[29] = test system: HT29 colon
[30] = test system: MDA-MB-231 breast
[31] = test system: IGROV1 ovarian
[32] = test system: NCI/ADR-RES ovarian
[33] = test system: CAKI-1 renal
[34] = test system: RPMI-8226 leukemia
[35] = test system: SNB-19 CNS
[36] = test system: HOP-62 NSCLC
[37] = test system: SF-268 CNS
[38] = test system: SF-539 CNS
[39] = test system: NCI-H522 lung
[40] = test system: OVCAR-3 ovarian
[41] = test system: RXF 393 renal
[42] = test system: LOX IMVI melanoma
[43] = test system: HOP-92 NSCLC
[44] = test system: NCI-H23 lung
[45] = test system: MOLT-4 leukemia
[46] = test system: OVCAR-8 ovarian
[47] = test system: KM12 colon
[48] = test system: SF-295 CNS
[49] = test system: NCI-H460 lung
[50] = test system: A549 NSCLC
[51] = test system: EKVX NSCLC
[52] = test system: NCI-H226 lung
[53] = test system: SK-MEL-28 melanoma
[54] = test system: U251 CNS
[55] = test system: K-562 leukemia
[56] = test system: HL-60(TB) leukemia
[57] = test system: HCT-15 colon

CC(C)=CCc1c2c(c(O)c3c1O[C@]14C(=C[C@@H]5C[C@H]1C(C)(C)O[C@@]4(C/C=C(/C)C(=O)O)C5=O)C3=O)C=CC(C)(C)O2
GI50 [1]: 15.6 µM | TGI [1]: 36.8 µM | GI50 [2]: 15.6 µM | TGI [2]: 29 µM | GI50 [3]: 4.27 µM | TGI [3]: 16.4 µM | GI50 [4]: 17.5 µM | TGI [4]: 46.3 µM | GI50 [5]: 11.4 µM | TGI [5]: 24.2 µM | GI50 [6]: 14.4 µM | TGI [6]: 29.1 µM | GI50 [7]: 5.59 µM | TGI [7]: 42.4 µM | GI50 [8]: 14.3 µM | TGI [8]: 29.5 µM | GI50 [9]: 9.78 µM | TGI [9]: 23.1 µM | GI50 [10]: 0.987 µM | TGI [10]: 23.4 µM | GI50 [11]: 17.6 µM | TGI [11]: 36.3 µM | GI50 [12]: 24.7 µM | TGI [12]: 51.3 µM | GI50 [13]: 15.3 µM | TGI [13]: 32.2 µM | GI50 [14]: 14 µM | TGI [14]: 31.1 µM | GI50 [15]: 12.2 µM | TGI [15]: 25.7 µM | GI50 [16]: 12.7 µM | TGI [16]: 28 µM | GI50 [17]: 16.4 µM | TGI [17]: 30.7 µM | GI50 [18]: 13.1 µM | TGI [18]: 27.8 µM | GI50 [19]: 13.9 µM | TGI [19]: 32.4 µM | GI50 [20]: 3.13 µM | TGI [20]: > 100 µM | GI50 [21]: 17.3 µM | TGI [21]: 58.9 µM | GI50 [22]: 18.1 µM | TGI [22]: 38.5 µM | GI50 [23]: 18.5 µM | TGI [23]: 35.9 µM | GI50 [24]: 18 µM | TGI [24]: 32.3 µM | GI50 [25]: 10 µM | TGI [25]: 31.1 µM | GI50 [26]: 4.06 µM | TGI [26]: 17.4 µM | GI50 [27]: 12.8 µM | TGI [27]: 29.5 µM | GI50 [28]: 17 µM | TGI [28]: 37.9 µM | GI50 [29]: 12.9 µM | TGI [29]: 32.6 µM | GI50 [30]: 13.2 µM | TGI [30]: 33.7 µM | GI50 [31]: 4.64 µM | TGI [31]: 17.7 µM | GI50 [32]: 21.3 µM | TGI [32]: 75.3 µM | GI50 [33]: 16.6 µM | TGI [33]: 32.1 µM | GI50 [34]: 3.19 µM | TGI [34]: 13.9 µM | GI50 [35]: 17.2 µM | TGI [35]: 33.6 µM | GI50 [36]: 15.4 µM | TGI [36]: 31.5 µM | GI50 [37]: 15.4 µM | TGI [37]: 31.4 µM | GI50 [38]: 16.5 µM | TGI [38]: 35.1 µM | GI50 [39]: 16 µM | TGI [39]: 30.3 µM | GI50 [40]: 10.2 µM | TGI [40]: 22 µM | GI50 [41]: 12.6 µM | TGI [41]: 28.2 µM | GI50 [42]: 3.51 µM | TGI [42]: 14.4 µM | GI50 [43]: 11.7 µM | TGI [43]: 26.7 µM | GI50 [44]: 19.6 µM | TGI [44]: 49.4 µM | GI50 [45]: 14.3 µM | TGI [45]: 63 µM | GI50 [46]: 12.7 µM | TGI [46]: 33.6 µM | GI50 [47]: 16.7 µM | TGI [47]: 33.5 µM | GI50 [48]: 17.7 µM | TGI [48]: 36.5 µM | GI50 [49]: 15.8 µM | TGI [49]: 32.1 µM | GI50 [50]: 20.9 µM | TGI [50]: 45.6 µM | GI50 [51]: 17.2 µM | TGI [51]: 41.4 µM | GI50 [52]: 21.7 µM | TGI [52]: 50.2 µM | GI50 [53]: 15 µM | TGI [53]: 30.1 µM | GI50 [54]: 10.4 µM | TGI [54]: 22.6 µM | GI50 [55]: 6.43 µM | TGI [55]: > 100 µM | GI50 [56]: 12 µM | TGI [56]: 43.2 µM | GI50 [57]: 6.65 µM | TGI [57]: 33.8 µM
